Experimental data from ChEMBL document CHEMBL1201862, “PubChem BioAssay data set” (2004).
Calls of active or inactive are those of the source. Cut-off read from the data, not from the text of the source: actives have a measured IC50 and inactives only a lower limit.

These molecules were tested against Envelope glycoprotein gp160 (Human immunodeficiency virus 1, UniProt Q6QLK5) (assay: inhibitors of HIV fusion peptide binding, primary screen, biochemical, uHTS, fluorescence dequenching (AID 1986)).
Chain of Envelope glycoprotein gp160 (Q6QLK5 whole entry, the tested form may be a part): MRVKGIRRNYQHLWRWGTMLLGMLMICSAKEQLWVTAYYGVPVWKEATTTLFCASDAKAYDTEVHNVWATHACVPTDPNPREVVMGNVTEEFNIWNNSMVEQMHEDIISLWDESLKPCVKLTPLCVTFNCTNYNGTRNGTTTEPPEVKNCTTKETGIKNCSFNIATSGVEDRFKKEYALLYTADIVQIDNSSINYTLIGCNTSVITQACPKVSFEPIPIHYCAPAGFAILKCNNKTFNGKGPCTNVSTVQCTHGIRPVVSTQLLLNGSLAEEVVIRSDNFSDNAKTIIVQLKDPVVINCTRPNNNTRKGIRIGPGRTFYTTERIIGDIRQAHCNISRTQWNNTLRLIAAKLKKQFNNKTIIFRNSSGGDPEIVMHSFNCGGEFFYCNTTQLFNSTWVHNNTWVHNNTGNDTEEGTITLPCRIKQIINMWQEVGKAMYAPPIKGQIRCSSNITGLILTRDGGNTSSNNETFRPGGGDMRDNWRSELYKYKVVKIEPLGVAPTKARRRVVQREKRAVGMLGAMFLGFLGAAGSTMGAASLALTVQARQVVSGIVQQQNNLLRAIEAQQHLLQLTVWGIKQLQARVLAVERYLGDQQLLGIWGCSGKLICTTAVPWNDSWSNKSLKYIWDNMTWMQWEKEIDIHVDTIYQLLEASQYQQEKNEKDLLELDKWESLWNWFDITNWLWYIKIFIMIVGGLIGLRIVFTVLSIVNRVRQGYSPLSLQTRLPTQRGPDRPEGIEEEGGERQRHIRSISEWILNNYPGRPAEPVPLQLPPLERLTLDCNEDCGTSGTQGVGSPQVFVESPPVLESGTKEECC
In the case of `COc1ccc(C(=O)/C=C/c2ccc(OCc3ccccc3)cc2)cc1CSCC(=O)O`, the IC50 is reported as 25.7 µM (active). In the case of `Cc1cc(/C=C2/C(=N)N3C(=NC2=O)SN=C3S(C)(=O)=O)c(C)n1-c1ccccc1`, the IC50 is reported as 19.1 µM (active). For `O=S(=O)(Nc1nc2ccccc2nc1Nc1cccc(S(=O)(=O)N2CCCCC2)c1)c1ccccc1`, the IC50 was 13.3 µM (active).
